# ChEMBL document CHEMBL5247623, “The SAR and action mechanisms of autophagy inhibitors that eliminate drug resistance” (Eur J Med Chem, 2022)
# Assays:
# [1] = biological target: Phosphatidylinositol 3-kinase catalytic subunit type 3 (Homo sapiens, UniProt Q8NEB9); test: Inhibition of VPS34 (unknown origin)
# [2] = Inhibition of starvation induced autophagy in human MCF7 cells expressing eGFP-LC3; assay type: functional, cell-based
# [3] = Inhibition of rapamycin induced autophagy in human MCF7 cells expressing eGFP-LC3; assay type: functional, cell-based
# [4] = biological target: T1, Serine/threonine-protein kinase ULK1 (Homo sapiens, UniProt O75385); test: Inhibition of ULK1 (unknown origin)
# T1 sequence (O75385 whole entry): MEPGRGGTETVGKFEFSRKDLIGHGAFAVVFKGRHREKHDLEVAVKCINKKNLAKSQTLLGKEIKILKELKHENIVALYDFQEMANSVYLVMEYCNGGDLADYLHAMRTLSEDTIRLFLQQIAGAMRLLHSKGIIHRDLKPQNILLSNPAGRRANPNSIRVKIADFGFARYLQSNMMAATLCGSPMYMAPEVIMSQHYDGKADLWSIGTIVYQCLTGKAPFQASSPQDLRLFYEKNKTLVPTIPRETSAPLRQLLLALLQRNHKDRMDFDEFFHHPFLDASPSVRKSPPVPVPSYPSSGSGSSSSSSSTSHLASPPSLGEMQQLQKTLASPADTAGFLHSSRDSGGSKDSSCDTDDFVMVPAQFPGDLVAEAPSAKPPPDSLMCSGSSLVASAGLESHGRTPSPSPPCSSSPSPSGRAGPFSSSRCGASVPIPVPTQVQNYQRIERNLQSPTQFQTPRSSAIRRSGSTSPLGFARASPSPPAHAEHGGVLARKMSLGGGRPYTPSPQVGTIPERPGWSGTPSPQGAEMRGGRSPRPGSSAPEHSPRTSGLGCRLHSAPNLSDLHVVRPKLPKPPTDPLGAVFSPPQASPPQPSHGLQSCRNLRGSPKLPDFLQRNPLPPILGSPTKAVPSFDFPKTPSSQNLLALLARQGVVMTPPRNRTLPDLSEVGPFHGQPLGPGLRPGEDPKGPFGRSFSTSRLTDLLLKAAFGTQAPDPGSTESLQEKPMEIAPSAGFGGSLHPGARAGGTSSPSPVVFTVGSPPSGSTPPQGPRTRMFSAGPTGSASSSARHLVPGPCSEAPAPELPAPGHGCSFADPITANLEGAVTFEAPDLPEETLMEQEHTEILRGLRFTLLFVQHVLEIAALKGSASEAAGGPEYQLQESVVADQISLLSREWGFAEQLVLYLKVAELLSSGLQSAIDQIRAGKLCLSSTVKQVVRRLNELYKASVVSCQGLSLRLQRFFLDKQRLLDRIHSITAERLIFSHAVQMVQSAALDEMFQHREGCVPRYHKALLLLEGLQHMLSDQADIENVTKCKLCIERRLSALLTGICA
# [5] = biological target: T2, Serine/threonine-protein kinase ULK2 (Homo sapiens, UniProt Q8IYT8); test: Inhibition of ULK2 (unknown origin)
# T2 sequence (Q8IYT8 whole entry): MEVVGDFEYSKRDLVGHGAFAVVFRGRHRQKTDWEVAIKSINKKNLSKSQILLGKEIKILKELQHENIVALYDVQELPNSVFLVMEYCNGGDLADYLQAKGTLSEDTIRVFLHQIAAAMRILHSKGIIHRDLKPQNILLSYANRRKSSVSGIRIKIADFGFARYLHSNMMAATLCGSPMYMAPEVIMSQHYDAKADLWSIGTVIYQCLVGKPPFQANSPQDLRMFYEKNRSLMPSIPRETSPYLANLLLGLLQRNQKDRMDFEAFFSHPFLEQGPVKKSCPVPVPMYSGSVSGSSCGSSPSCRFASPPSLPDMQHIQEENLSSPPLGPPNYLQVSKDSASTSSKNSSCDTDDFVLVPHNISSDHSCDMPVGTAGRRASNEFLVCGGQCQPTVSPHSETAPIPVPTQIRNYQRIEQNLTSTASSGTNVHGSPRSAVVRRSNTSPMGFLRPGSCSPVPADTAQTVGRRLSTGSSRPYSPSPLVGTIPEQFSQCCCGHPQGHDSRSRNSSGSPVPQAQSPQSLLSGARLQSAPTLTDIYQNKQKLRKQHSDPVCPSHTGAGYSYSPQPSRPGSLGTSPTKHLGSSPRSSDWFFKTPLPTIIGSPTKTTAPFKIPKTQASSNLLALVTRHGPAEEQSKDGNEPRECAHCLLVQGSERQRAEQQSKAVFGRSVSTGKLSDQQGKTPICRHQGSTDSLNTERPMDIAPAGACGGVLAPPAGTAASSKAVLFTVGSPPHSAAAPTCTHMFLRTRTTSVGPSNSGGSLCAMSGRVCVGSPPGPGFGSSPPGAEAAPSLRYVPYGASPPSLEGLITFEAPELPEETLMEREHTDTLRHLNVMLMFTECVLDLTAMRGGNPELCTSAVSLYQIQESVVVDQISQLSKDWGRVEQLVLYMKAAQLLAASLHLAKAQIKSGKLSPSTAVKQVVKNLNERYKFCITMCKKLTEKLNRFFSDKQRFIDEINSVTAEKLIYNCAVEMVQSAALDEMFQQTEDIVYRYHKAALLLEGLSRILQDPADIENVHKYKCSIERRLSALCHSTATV
# U2OS [6] = test: Cytotoxicity against human U2OS cells; assay type: functional, cell-based
# U2OS [7] = test: Inhibition of autophagy in human U2OS cells expressing tfLC3 incubated for 3 hrs by fluorescent microscopy; assay type: functional, cell-based
# Chain of Phosphatidylinositol 3-kinase catalytic subunit type 3 (Q8NEB9 whole entry): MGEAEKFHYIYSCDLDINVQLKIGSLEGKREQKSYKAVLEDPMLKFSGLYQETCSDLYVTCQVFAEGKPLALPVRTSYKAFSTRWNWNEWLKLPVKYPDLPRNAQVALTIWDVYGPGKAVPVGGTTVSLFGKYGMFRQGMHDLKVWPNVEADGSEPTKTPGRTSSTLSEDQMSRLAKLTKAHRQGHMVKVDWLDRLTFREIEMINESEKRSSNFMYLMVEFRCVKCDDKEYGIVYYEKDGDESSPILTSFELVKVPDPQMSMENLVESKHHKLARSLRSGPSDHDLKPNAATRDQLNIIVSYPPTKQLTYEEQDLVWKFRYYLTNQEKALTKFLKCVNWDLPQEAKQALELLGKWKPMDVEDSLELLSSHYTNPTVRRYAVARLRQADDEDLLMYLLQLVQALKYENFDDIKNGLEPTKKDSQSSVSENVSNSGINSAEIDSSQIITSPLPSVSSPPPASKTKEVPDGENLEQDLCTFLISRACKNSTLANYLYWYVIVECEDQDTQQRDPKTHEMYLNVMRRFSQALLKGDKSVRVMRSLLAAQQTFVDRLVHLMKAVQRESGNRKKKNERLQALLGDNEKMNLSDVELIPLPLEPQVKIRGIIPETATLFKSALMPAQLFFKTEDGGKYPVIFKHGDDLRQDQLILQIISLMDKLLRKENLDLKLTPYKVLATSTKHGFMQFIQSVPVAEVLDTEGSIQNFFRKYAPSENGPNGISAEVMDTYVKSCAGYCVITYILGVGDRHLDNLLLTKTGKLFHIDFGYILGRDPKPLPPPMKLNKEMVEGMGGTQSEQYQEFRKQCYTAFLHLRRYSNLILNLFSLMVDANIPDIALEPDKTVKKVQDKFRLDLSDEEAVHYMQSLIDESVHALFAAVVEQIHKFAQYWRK
Compound,IC50 [1] [nM],IC50 [2] [nM],also measured
COC(=O)c1coc2c(O)c3c(c(C)c12)C=C[C@]1(C)C(=O)CC[C@@H]31,4600,,
COC[C@H]1OC(=O)c2coc3c2[C@@]1(C)C1=CC[C@]2(C)C(=O)CC[C@H]2C1C3=O (some centres undefined),54,,
COC[C@H]1OC(=O)c2coc3c2[C@@]1(C)C1=C(C3=O)[C@@H]2CC[C@H](O)[C@@]2(C)C[C@H]1OC(C)=O,0.5,,
COC[C@H]1OC(=O)c2c(C)oc3c2[C@@]1(C)C1=C(C3=O)[C@@H]2CCC(=O)[C@@]2(C)C[C@H]1OC(C)=O,≥ 500,,
CCN(/C=C1\C(=O)O[C@H](COC)[C@@]2(C)C1=C(O)C(=O)C1=C2[C@H](OC(C)=O)C[C@]2(C)C(=O)CC[C@@H]12)CC,80,,
COC[C@H]1OC(=O)C2=CCOC3=C2[C@@]1(C)C1=C(C3=O)[C@@H]2CCC(=O)[C@@]2(C)C[C@H]1OC(C)=O,271,,
Cc1cc(Nc2cc(N3CCN(C)CC3)nc(Oc3ccc([N+](=O)[O-])cc3)n2)n[nH]1,146,390,
COC[C@H]1OC(=O)C23CC2COC2=C3[C@@]1(C)C1=C(C2=O)[C@@H]2CCC(=O)[C@@]2(C)C[C@H]1OC(C)=O (some centres undefined),≥ 500,,
Cc1cc(Nc2cc(Cl)nc(Oc3ccc([N+](=O)[O-])cc3)n2)n[nH]1,,90,IC50 [3]: 40 nM
O=C(C1CC1)N1CCc2cc(Br)c(S(=O)(=O)Nc3ccc(Cl)c(C(F)(F)F)c3)cc21,,140,
CN/C=C1\C(=O)O[C@H](COC)[C@@]2(C)C1=C(O)C(=O)C1=C2[C@H](OC(C)=O)C[C@]2(C)C(=O)CC[C@@H]12,≥ 500,,
Clc1cc(Nc2cc[nH]n2)nc(OCc2ccncc2)n1,110,380,IC50 [3]: 280 nM
O=C(N[C@@H](C1CC1)C(F)(F)F)c1cc(C2C=C3N=C(c4ccc(F)cc4)C=CN3N2)cs1 (some centres undefined),,,IC50 [4]: 8.3 nM; IC50 [5]: 30 nM
Cc1cc(Nc2cc(N3CCOCC3)nc(Oc3ccc([N+](=O)[O-])cc3)n2)n[nH]1,121,230,IC50 [3]: 160 nM
CC(C)C(=O)N1CCc2cc(Br)c(S(=O)(=O)Nc3ccc(Cl)c(C(F)(F)F)c3)cc21,,3000,
COC[C@H]1OC(=O)c2coc3c2[C@@]1(C)C1=C(C3=O)[C@@H]2C[C@@H](Br)C(OC(C)=O)[C@@]2(C)C[C@H]1OC(C)=O (some centres undefined),77,,

Compound,IC50 [1] [nM],IC50 [2] [nM],also measured
O=C(CC1CC1)N1CCc2ccc(S(=O)(=O)Nc3ccc(Cl)c(C(F)(F)F)c3)cc21,,6600,
O=C(C1CC1)N1CCc2cc(Br)c(S(=O)(=O)Nc3cc(C(F)(F)F)ccc3F)cc21,,1400,
O=C(C1CC1)N1CCc2cc(Br)c(S(=O)(=O)Nc3cc(Cl)ccc3C(F)(F)F)cc21,,2400,
COC[C@H]1OC(=O)c2coc3c2[C@@]1(C)C1=C(C3=O)[C@@H]2C[C@@H](O)C(OC(C)=O)[C@@]2(C)C[C@H]1OC(C)=O (some centres undefined),153,,
Cc1cc(Nc2cc(Cl)nc(Oc3ccc([N+](=O)[O-])cc3)n2)no1,20,170,IC50 [3]: 120 nM
Cc1ccc(NS(=O)(=O)c2cc3c(cc2Br)CCN3C(=O)C2CC2)cc1C(F)(F)F,,810,
Cc1cc(Nc2cc(C(F)(F)F)nc(Nc3ccc([N+](=O)[O-])cc3)n2)n[nH]1,310,340,IC50 [3]: 440 nM
O=[N+]([O-])c1ccc(Oc2nc(Cl)cc(Nc3ccccc3)n2)cc1,,2130,
CC(C)[C@H](NC(=O)c1cc(C2C=C3N=C(c4ccc(OCCN5CCCCC5)cc4)C=CN3N2)cs1)C(F)(F)F (some centres undefined),,,IC50 [4]: 1.6 nM; IC50 [5]: 2.6 nM
CN1CCN(CCNc2c3ccccc3nc3cc(Cl)ccc23)CC1,,,IC50 (U2OS [6]): 27000 nM; EC50 (U2OS [7]): 5000 nM
N#Cc1ccc(Oc2nc(Cl)cc(Nc3cc[nH]n3)n2)cc1,49,130,IC50 [3]: 90 nM
COc1ccc2nc3cc(Cl)ccc3c(NCCCCN3CCN(C)CC3)c2c1,,,IC50 (U2OS [6]): 700 nM; EC50 (U2OS [7]): 100 nM
Cc1cc(Nc2cc(C(F)(F)F)nc(Oc3ccc([N+](=O)[O-])cc3)n2)n[nH]1,78,190,IC50 [3]: 70 nM
CCCN/C=C1\C(=O)O[C@H](COC)[C@@]2(C)C1=C(O)C(=O)C1=C2[C@H](OC(C)=O)C[C@]2(C)C(=O)CC[C@@H]12,≥ 500,,
CCN(CC)CCCC(C)Nc1c2ccc(Cl)cc2nc2ccc(OC)cc12 (centres undefined) [QUINACRINE],,,IC50 (U2OS [6]): 2500 nM; EC50 (U2OS [7]): 250 nM
COC[C@H]1OC(=O)c2coc3c2[C@@]1(C)C1=C(C3=O)[C@@H]2CCC(=O)[C@@]2(C)C[C@H]1OC(C)=O [WORTMANNIN],4.2,,

# The next lines start with results.
IC50 [1] [nM],IC50 [2] [nM],Compound,also measured
17,,COC[C@H]1OC(=O)c2coc3c2[C@@]1(C)C1=C(C3=O)[C@@H]2CCC(=O)[C@@]2(C)CC1,
627,1400,CC(C)(C)c1cc(Nc2cc(Cl)nc(Oc3ccc([N+](=O)[O-])cc3)n2)n[nH]1,IC50 [3]: 2000 nM
,4500,O=C(CC1CC1)N1CCc2cc(Br)c(S(=O)(=O)Nc3ccc(Cl)c(C(F)(F)F)c3)cc21,
285,450,Cc1cc(Nc2cc(N(C)C)nc(Oc3ccc([N+](=O)[O-])cc3)n2)n[nH]1,IC50 [3]: 280 nM
,3300,O=C(C1CCC1)N1CCc2cc(Br)c(S(=O)(=O)Nc3ccc(Cl)c(C(F)(F)F)c3)cc21,
214,200,Cc1cc(Nc2cc(Cl)nc(OCc3ccc([N+](=O)[O-])cc3)n2)n[nH]1,IC50 [3]: 470 nM
36,130,O=[N+]([O-])c1ccc(Oc2nc(Cl)cc(Nc3cc(C4CC4)[nH]n3)n2)cc1,IC50 [3]: 100 nM
23,70,Cc1cc(Nc2cc(C)[nH]n2)nc(Oc2ccc([N+](=O)[O-])cc2)n1,IC50 [3]: 40 nM
,1100,O=C(C1CC1)N1CCc2cc(Br)c(S(=O)(=O)Nc3cc(C(F)(F)F)ccc3Cl)cc21,
309,,COC[C@H]1OC(=O)c2coc3c2[C@@]1(C)C1=C(C3=O)[C@@H]2C[C@@H](OC(C)=O)C(OC(C)=O)[C@@]2(C)C[C@H]1OC(C)=O (some centres undefined),
59,,COC[C@H]1OC(=O)c2coc3c2[C@@]1(C)C1=C(C3=O)[C@@H]2CCC(OC(C)=O)[C@@]2(C)C[C@H]1OC(C)=O (some centres undefined),
≥ 500,,CCN/C=C1\C(=O)O[C@H](COC)[C@@]2(C)C1=C(O)C(=O)C1=C2[C@H](OC(C)=O)C[C@]2(C)C(=O)CC[C@@H]12,
61,450,NS(=O)(=O)c1ccc(Oc2nc(Cl)cc(Nc3cc[nH]n3)n2)cc1,IC50 [3]: 420 nM
≥ 500,,COC[C@H]1OC(=O)/C(=C\N)C2=C(O)C(=O)C3=C([C@H](OC(C)=O)C[C@]4(C)C(=O)CC[C@@H]34)[C@]21C,
52,,CCCCN/C=C1\C(=O)O[C@H](COC)[C@@]2(C)C1=C(O)C(=O)C1=C2[C@H](OC(C)=O)C[C@]2(C)C(=O)CC[C@@H]12,
,560,O=C(C1CC1)N1CCc2cc(Br)c(S(=O)(=O)Nc3cccc(C(F)(F)F)c3)cc21,
